Structures are written as SMILES. ≈ marks a conversion by molar mass, not a printed value.

Consider 36 compounds from ChEMBL document CHEMBL5550137 (Bioorg Med Chem Lett, 2024).

The test system of the first data set is NCI-H460. Nature of the data set: Anti-cancer activity of human PTX-resistant NCI-H460 cells incubated for 48 hrs by CCK8 assay. To be noted: NCI-H460, 48 h. In kind it is functional, cell-based.
By IC50 is commonly meant the concentration at which inhibition is half-maximal. The compound `CC(=O)O[C@H]1C(=O)[C@@]2(C)[C@H]([C@H](OC(=O)c3ccccc3)[C@]3(O)C[C@H](OC(=O)[C@H](O)[C@@H](NC(=O)c4ccccc4)c4ccccc4)C(C)=C1C3(C)C)[C@]1(OC(C)=O)CO[C@@H]1C[C@@H]2O` [PACLITAXEL] gave an IC50 of 633 nM.

A further data set has as its system HEK-293T. The data set can be described thus: Cytotoxicity against HEK293T cells expressing AhR/luc incubated for 48 hrs by CCK8 assay. In kind it is toxicity, cell-based. The settings on record: human.
Consider `O=C1c2cccc3c(Br)ccc(c23)C(=O)N1Cc1cncnc1`, for which the Activity result is “Non-Toxic”.

Tested on in another data set: not listed separately
Nature of the data set: Solubility in water by HPLC-UV analysis. In kind it is physicochemical.
Details: not given; call rule not given here
The solubility is the concentration that dissolves in the medium under given conditions. Low readings indicate a poorly soluble substance, high ones a readily soluble substance. Turning to `Cl.O=C1c2cccc3c(Br)ccc(c23)C(=O)N1Cc1cncnc1`, the concentration in solution (solubility) came to 262 µg/mL. On the same count and under the same terms, in the case of `CCN1C(=O)c2cccc3c(Br)ccc(c23)C1=O` it was 103 µg/mL (≈ 340 µM).

In another data set the target is T1, Cytochrome P450 1B1 (Homo sapiens, UniProt Q16678).
T1 sequence (Q16678 whole entry): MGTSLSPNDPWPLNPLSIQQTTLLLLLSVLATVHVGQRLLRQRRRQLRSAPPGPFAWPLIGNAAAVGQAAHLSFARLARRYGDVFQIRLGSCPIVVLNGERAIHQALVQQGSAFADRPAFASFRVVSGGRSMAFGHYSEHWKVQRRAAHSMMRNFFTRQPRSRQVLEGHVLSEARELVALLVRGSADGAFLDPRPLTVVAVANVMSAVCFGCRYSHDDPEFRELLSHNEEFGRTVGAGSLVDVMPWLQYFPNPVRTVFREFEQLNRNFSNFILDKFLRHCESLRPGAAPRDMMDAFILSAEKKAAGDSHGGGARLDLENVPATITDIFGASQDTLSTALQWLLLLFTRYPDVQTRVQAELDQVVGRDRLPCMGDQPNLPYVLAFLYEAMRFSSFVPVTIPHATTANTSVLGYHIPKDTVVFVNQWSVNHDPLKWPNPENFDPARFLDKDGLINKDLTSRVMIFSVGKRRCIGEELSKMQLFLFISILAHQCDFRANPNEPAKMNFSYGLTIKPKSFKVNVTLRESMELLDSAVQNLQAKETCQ
Nature of the data set: Mixed inhibition of recombinant human CYP1B1 using 7-ER as substrate in presence of NADPH by fluorescence based assay.
Details: not given
As usually defined, the Ki is a measure of affinity in units of concentration, obtained from inhibition or displacement. In the case of `O=C1c2cccc3c(Br)ccc(c23)C(=O)N1Cc1cncnc1`, the inhibitory constant (Ki) turned out to be 0.0217 nM.

A further data set has as its target T1, Cytochrome P450 1B1. The data set can be described thus: Inhibition of recombinant human CYP1B1 using 7-ER as substrate in presence of NADPH by fluorescence based assay.
Details: not given
Consider `O=C1c2cccc3c(Br)ccc(c23)C(=O)N1Cc1ccon1`, for which the IC50 came to 42.3 nM. The same measure, in the same setting: under `O=C1c2cccc3c(Br)ccc(c23)C(=O)N1Cc1cccnc1` stands 1.81 nM. Still for that read-out and setting: in the case of `O=C1c2cccc3c(Br)ccc(c23)C(=O)N1Cc1ncccn1` it was 91.7 nM; in that of `O=C1c2cccc3c(Br)ccc(c23)C(=O)N1Cc1nccs1`, 36.7 nM. Still for that read-out and setting: under `O=C1c2cccc3c(Br)ccc(c23)C(=O)N1Cc1ccncn1` stands 22.7 nM. In the case of `CCN1C(=O)c2cccc3ccc(Br)c(c23)C1=O`, the IC50 is 3.52 nM. Turning to `O=C1c2cccc3c(Br)ccc(c23)C(=O)N1CC1CN(Cc2ccccc2)CCO1` (stereo unspecified), the IC50 was greater than 1000 nM. Still for that read-out and setting: in the case of `Nc1ccc2c3c(cccc13)C(=O)N(Cc1cncnc1)C2=O` it was 67.1 nM; in that of `O=C1c2cccc3c(Br)ccc(c23)C(=O)N1CC1CCC1`, 3.64 nM. In the case of `O=C1c2cccc3c(Br)ccc(c23)C(=O)N1CC1CCCC1`, the IC50 worked out at 11.7 nM. Still for that read-out and setting: under `O=C1c2cccc3c(Br)ccc(c23)C(=O)N1CCc1ccccc1` stands 5.36 nM; under `O=C1c2cccc3c(Br)ccc(c23)C(=O)N1Cc1cc[nH]n1`, 17.6 nM; under `O=C1c2cccc3c(Br)ccc(c23)C(=O)N1Cc1ccc2ncccc2c1`, 30 nM. On the same count and under the same terms, in the case of `CCN1C(=O)c2cccc3cccc(c23)C1=O` it was 605 nM; in that of `O=C1c2cccc3c(Br)ccc(c23)C(=O)N1CCCc1ccccc1`, 16.8 nM. For the compound `O=C1c2cccc3c(Br)ccc(c23)C(=O)N1CC1Oc2ccccc2O1`, the IC50 was found to be 12 nM.

In the case of `O=C1c2cccc3c(O)ccc(c23)C(=O)N1Cc1cncnc1`, the IC50 was 56.6 nM. Regarding `O=C1c2cccc3c(Br)ccc(c23)C(=O)N1Cc1ccccn1`, the IC50 came to 148 nM. Same read-out and setting: under `O=C1c2cccc3c(Br)ccc(c23)C(=O)N1CC1CCCCC1` stands 7.99 nM; under `O=C1c2cccc3c(Br)ccc(c23)C(=O)N1Cc1cnccn1`, 156 nM. On the same count and under the same terms, under `O=C1c2cccc3c(Br)ccc(c23)C(=O)N1CC1CC1` stands 19.2 nM; under `O=C1c2cccc3c(Br)ccc(c23)C(=O)N1Cc1ncco1`, 31 nM. As for `O=C1c2cccc3c(Br)ccc(c23)C(=O)N1Cc1cccs1`, the IC50 stood at 3.42 nM. As to `O=C1c2cccc3c(Br)ccc(c23)C(=O)N1Cc1cncnc1`, the IC50 worked out at 0.04 nM. As for `O=C1c2cccc3c(Br)ccc(c23)C(=O)N1Cc1ccccc1`, the IC50 is 1.95 nM. As for `O=C1c2cccc3c(Br)ccc(c23)C(=O)N1Cc1ccncc1`, the IC50 is 1.42 nM. For `CCN1C(=O)c2cccc3cc(Br)cc(c23)C1=O`, the IC50 is 5.32 nM. Still for that read-out and setting: in the case of `O=C1c2cccc3c(Br)ccc(c23)C(=O)N1Cc1cn[nH]c1` it was 0.21 nM; in that of `O=C1c2cccc3c(Br)ccc(c23)C(=O)N1CCCCc1ccccc1`, 57.3 nM; in that of `CCN1C(=O)c2cccc3c(Br)ccc(c23)C1=O`, 5.63 nM. As to `O=C1c2cccc3c(Br)ccc(c23)C(=O)N1Cc1ccc[nH]1`, the IC50 is 0.39 nM. Regarding `O=C1c2cccc3c(Br)ccc(c23)C(=O)N1Cc1c[nH]cn1`, the IC50 worked out at 173 nM.

Regarding `CCN1C(=O)c2cccc3c(O)ccc(c23)C1=O`, the IC50 is greater than 1000 nM.

As for `O=C1c2cccc3cccc(c23)C(=O)N1Cc1cncnc1`, the IC50 was 221 nM.

The next data set has as its target T1, Cytochrome P450 1B1. Nature of the data set: Inhibition of human CYP1B1 over-expressed in CHO cells preincubated for 3 hrs followed media replacement containing estradiol without compound measured after 3 hrs. It counts as cell-based.
Details: not given
Turning to `O=C1c2cccc3c(Br)ccc(c23)C(=O)N1Cc1cncnc1`, half-maximal inhibition (IC50) required 0.47 nM.

Another data set concerns the target T1, Cytochrome P450 1B1. The data set can be described thus: Inhibition of recombinant human CYP1B1 using 7-ER as substrate measured after 33 mins in presence of NADPH by fluorescence based assay. To be noted: 0.55 h.
For the compound `O=C1c2cccc3c(Br)ccc(c23)C(=O)N1Cc1cncnc1`, the “inhibition (INH)” value was “Not Active”.
